From patent US10239880B2, “Cyclopenta[d]pyrimidines and substituted cyclopenta[d]pyrimidines as antitubulin and microtubule targeting agents, monocyclic pyrimidines as tubulin inhibitors, and pyrrolopyrimidines as targeted antifolates and tubulin and multiple receptor tyrosine kinase inhibition and antitumor agents” (Duquesne University of the Holy Spirit, priority 2015, dated 2019)
Where two headings read alike, the source gives them in different places. Blank lines part the entries; values can stand above or below the compound they belong to.

How the values were obtained:
A-10 cells = assay: Microtubule depolymerization, cell-based phenotypic assay in A-10 cells
MDA-MB-435 cancer cells = assay: Antiproliferative effect in MDA-MB-435 cancer cells (SRB assay); type: cell-based
VEGFR2 = VEGFR2 (Homo sapiens, UniProt P35968); assay: Kinase inhibition, whole-cell assay, VEGFR2 (Flk-1); type: cell-based; conditions: Table 3b; unit inferred
U251 = U251 cytotoxicity; type: cell-based; conditions: Homo sapiens, U-251; Table 3b; unit inferred
EGFR = EGFR (Homo sapiens, UniProt P00533); assay: Kinase inhibition, whole-cell assay, EGFR; type: cell-based; conditions: Table 3b; unit inferred; read-out: EGFR kinase inhibition
A431 = A431 cytotoxicity; conditions: Homo sapiens, A-431, read-out: A431 cytotoxicity, Table 3b; unit inferred
CAM = CAM (gi50); conditions: Table 3b; unit inferred
PDGFR-β = PDGFR-β (Homo sapiens, UniProt P09619); assay: Kinase inhibition, whole-cell assay, PDGFR-β; type: cell-based; conditions: Table 3b; unit inferred; read-out: PDGFR kinase inhibition
Parental HeLa = assay: Antiproliferative activity, parental HeLa; type: cell-based; conditions: Homo sapiens, Table 7, read-out: IC50 ± SD Parental HeLa
Description: (§1) Another clinically relevant drug resistance mechanism of tubulin-targeting agents is the overexpression of the βIII isotype of tubulin.

[1] = test system: β-III overexpressing HeLa; assay: Antiproliferative activity, β-III overexpressing HeLa; type: cell-based; conditions: for IC50: Homo sapiens, HeLa, Table 7, read-out: IC50 ± SD β-III overexpressing HeLa
Description: as §1

Parental SK-OV-3 = assay: Antiproliferative activity, parental SK-OV-3; type: cell-based; conditions: Homo sapiens, Table 6, read-out: IC50 ± SD Parental SK-OV-3
[2] = test system: Pgp expressing SK-OV-3 MDR1-6-6; assay: Antiproliferative activity, Pgp expressing SK-OV-3 MDR1-6-6; type: cell-based; conditions: Homo sapiens, SK-OV-3; Table 6; read-out: IC50 ± SD Pgp expressing SK-OV-3 MDR1-6-6
PC43-10 (RFC) = assay: Proliferation inhibition, RFC-expressing PC43-10 cells; type: cell-based, Chinese hamster; conditions: Table 11
Description: (§2) AGF215, AGF234 and AGF263 were compared to AGF23 as inhibitors of proliferation of engineered Chinese hamster ovary (CHO) cells expressing human PCFT (R2/PCFT4), FRα (RT16), or RFC (PC43-10).

RT16 (FRα) = assay: Proliferation inhibition, FRα-expressing RT16 cells; type: cell-based, Chinese hamster
Description: as §2

MDA-MB-435 xenograft = MDA-MB-435 xenograft trial; conditions: MDA-MB-435 xenograft, IP 75 mg/kg
KB (RFC/FRα/PCFT) = assay: Growth inhibition of KB tumor cells; type: cell-based, human
Experimental: Cell proliferation was assayed with CellTiter-Blue™ with a fluorescent plate reader.

[3] = Table 3a, unit inferred, read-out: EC50 for Microtubule Depolymerization in A · 10 Cells
[4] = Table 3a, unit inferred, read-out: IC50 ± SD in MDA-435 Cells
[5] = Rattus norvegicus, A10, Table 3a, unit inferred, read-out: EC50 for Microtubule Depolymerization in A · 10 Cells
[6] = Homo sapiens, Table 3a, unit inferred, read-out: IC50 ± SD in MDA-435 Cells
[7] = Rattus norvegicus, A10, read-out: EC50 in A-10 cells (Concentration that causes 50% tubulin loss in A-10 cells), Table 4, Section II compounds

Chain of PDGFR-β (P09619 33-1106, species assumed): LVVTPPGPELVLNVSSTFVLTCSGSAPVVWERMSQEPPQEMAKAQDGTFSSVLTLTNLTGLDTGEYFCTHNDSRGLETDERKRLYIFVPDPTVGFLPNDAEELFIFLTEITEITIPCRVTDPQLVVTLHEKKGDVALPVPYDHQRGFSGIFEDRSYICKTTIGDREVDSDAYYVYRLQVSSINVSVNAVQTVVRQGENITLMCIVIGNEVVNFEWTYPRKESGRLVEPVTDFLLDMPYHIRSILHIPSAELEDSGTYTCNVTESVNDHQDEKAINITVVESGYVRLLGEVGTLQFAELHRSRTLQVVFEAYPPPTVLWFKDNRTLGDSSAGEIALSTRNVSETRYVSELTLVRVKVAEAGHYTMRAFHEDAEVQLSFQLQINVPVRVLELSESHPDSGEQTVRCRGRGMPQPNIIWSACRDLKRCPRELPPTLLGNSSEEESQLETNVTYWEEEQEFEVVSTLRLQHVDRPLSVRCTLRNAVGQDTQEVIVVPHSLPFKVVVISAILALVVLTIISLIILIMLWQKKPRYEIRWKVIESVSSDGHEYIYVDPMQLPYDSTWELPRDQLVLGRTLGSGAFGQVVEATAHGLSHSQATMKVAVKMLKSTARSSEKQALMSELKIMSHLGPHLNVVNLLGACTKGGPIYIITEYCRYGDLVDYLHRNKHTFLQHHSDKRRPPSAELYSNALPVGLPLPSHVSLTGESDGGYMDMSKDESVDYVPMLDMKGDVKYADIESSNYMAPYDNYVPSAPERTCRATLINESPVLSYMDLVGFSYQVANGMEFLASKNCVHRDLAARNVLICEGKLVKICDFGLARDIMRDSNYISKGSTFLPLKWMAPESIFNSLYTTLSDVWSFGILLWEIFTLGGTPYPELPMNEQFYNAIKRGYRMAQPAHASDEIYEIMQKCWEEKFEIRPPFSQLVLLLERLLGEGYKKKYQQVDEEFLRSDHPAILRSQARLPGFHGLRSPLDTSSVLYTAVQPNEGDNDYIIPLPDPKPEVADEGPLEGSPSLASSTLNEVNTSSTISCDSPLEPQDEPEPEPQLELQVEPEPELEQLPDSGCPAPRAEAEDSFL
Chain of EGFR (P00533 25-1210, species assumed): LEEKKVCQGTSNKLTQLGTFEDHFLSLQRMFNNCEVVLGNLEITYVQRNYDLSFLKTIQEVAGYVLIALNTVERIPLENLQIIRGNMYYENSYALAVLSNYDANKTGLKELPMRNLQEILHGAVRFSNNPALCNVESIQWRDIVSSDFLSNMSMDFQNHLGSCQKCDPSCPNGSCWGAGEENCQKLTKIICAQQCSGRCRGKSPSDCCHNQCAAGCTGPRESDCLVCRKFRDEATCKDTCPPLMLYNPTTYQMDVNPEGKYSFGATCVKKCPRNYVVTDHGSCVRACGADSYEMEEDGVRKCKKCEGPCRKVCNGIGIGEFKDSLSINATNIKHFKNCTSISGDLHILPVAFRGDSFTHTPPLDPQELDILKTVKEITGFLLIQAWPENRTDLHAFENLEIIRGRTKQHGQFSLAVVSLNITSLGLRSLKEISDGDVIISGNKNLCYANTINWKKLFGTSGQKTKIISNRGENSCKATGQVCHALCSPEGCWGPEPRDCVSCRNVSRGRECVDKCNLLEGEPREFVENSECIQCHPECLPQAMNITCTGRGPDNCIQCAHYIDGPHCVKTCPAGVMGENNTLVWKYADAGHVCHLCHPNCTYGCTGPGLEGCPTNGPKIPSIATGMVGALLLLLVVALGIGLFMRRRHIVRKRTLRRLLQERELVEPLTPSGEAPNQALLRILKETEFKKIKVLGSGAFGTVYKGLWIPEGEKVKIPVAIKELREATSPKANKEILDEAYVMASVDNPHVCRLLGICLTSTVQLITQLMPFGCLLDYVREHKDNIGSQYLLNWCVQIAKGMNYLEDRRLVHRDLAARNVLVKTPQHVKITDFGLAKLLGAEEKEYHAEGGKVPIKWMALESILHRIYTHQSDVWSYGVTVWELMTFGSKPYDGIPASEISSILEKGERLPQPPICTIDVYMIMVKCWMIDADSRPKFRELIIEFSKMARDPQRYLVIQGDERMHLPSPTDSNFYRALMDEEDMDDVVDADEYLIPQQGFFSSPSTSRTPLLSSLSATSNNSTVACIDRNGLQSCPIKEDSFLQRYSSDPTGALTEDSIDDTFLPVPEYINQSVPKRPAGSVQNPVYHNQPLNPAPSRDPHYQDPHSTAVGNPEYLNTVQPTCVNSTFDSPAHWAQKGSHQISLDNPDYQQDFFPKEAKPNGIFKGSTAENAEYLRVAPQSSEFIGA
Chain of VEGFR2 (P35968 20-1356, species assumed): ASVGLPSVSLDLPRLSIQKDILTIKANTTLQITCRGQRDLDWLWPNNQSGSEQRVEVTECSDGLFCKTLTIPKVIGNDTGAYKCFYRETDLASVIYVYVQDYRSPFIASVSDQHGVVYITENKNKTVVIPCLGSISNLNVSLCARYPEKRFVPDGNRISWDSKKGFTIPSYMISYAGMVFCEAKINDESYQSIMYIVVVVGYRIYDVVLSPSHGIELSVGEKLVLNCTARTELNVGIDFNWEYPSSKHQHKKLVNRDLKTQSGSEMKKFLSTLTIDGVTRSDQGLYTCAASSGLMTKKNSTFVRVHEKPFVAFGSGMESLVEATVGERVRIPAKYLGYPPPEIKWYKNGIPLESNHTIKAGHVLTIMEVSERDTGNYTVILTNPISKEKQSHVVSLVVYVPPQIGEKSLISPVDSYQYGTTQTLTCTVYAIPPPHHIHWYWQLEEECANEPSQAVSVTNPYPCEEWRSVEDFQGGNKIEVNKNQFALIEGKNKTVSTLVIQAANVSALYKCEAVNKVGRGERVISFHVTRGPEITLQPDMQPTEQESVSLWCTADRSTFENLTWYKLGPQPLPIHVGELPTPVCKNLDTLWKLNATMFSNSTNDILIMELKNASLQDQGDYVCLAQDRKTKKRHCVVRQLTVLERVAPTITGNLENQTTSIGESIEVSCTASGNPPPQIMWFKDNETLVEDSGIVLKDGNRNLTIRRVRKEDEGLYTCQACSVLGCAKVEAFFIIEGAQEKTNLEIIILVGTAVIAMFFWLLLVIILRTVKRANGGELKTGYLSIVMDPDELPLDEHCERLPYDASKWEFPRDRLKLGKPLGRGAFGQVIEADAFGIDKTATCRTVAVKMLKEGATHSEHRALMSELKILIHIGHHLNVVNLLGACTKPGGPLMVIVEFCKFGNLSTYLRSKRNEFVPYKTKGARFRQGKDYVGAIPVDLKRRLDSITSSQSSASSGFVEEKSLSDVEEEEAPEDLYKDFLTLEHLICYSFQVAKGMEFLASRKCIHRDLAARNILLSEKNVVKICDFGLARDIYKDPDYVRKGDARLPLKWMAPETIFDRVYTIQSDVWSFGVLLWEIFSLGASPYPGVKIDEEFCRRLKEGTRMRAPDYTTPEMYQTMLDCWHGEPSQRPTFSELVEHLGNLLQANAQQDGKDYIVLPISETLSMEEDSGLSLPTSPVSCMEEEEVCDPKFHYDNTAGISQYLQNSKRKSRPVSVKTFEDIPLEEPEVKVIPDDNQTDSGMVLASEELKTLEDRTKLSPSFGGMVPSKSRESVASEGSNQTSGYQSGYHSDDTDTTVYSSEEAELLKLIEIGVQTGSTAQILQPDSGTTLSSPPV

Compound: Cc1nc2c(c(N(C)c3ccc(N(C)C)cc3)n1)CCC2 [Compound 9]
IC50 (Parental HeLa): 11 ± 1 nM
IC50 [1]: 9.8 ± 0.9 nM
IC50 (Parental SK-OV-3): 13 ± 1 nM
IC50 [2]: 22.6 ± 2.3 nM

Compound: Nc1nc(N)c2nc(CNc3ccc(C(=O)N[C@@H](CCCNC(=O)c4ccccc4C(=O)O)C(=O)O)cc3)cnc2n1 [PT523]
IC50 (PC43-10 (RFC)): 1.28 nM
IC50 (RT16 (FRα); Table 11, read-out: IC50 FRα RT16): 409 nM
IC50 (RT16 (FRα); with folic acid (+FA), read-out: IC50 FRα RT16 (+FA)): > 1000 nM

Compound: COc1ccc(N(C)c2nc(C)nc3ccn(C(C)C)c23)cc1.Cl [AG174]
antitumor effects (MDA-MB-435 xenograft): highly statistically significant (p<0.001) antitumor effects

Compound: CO[C@H]1CC[C@H](N(C)c2nc(C)nc3c2CCC3)CC1 [Compd 13]
EC50 (A-10 cells; [7]): > 10000 nM

Compound: CSc1ccc(N(C)c2nc(C)nc3ccn(C)c23)cc1 [Table 3a 26]
IC50 (VEGFR2): 544 ± 77.2 nM
EC50 (A-10 cells; Rattus norvegicus, A10, Table 3a, lines that print nM, read-out: EC50 for Microtubule Depolymerization in A · 10 Cells): 23 nM
IC50 (U251): 35.1 ± 6.3 nM
IC50 (EGFR): 54.8 ± 9.2 nM
IC50 (A431): 18.8 ± 4.1 nM
GI50 (CAM): 363 ± 56.9 nM
IC50 (MDA-MB-435 cancer cells; Homo sapiens, Table 3a, cells that print nM, read-out: IC50 ± SD in MDA-435 Cells): 6.2 nM
IC50 (PDGFR-β): 450 ± 53.1 nM

Compound: Nc1nc2[nH]c(CCCSc3ccc(C(=O)N[C@@H](CCC(=O)O)C(=O)O)cc3)cc2c(=O)[nH]1 [AGF263]
IC50 (KB (RFC/FRα/PCFT); Table 11, read-out: IC50 RFC/FRα/PCFT KB): 0.22 nM
IC50 (KB (RFC/FRα/PCFT); with folic acid (+FA), read-out: IC50 RFC/FRα/PCFT KB (+FA)): 600 nM
IC50 (PC43-10 (RFC)): > 1000 nM
IC50 RFC PC43-10 (PC43-10 (RFC)): inactive

Compound: Cc1nc2c(c(N(C)c3ccc4c(c3)CCO4)n1)CCC2 [Compound 6]
IC50 (Parental HeLa): 16 ± 1 nM
IC50 [1]: 15 ± 1 nM
IC50 (Parental SK-OV-3): 18.7 ± 1.2 nM
IC50 [2]: 29.8 ± 5.6 nM

Compound: CNc1ccc(N(C)c2nc(C)nc3c2CCC3)cc1 [Section II compound 8]
IC50 (Parental HeLa): 31 ± 1.6 nM
IC50 [1]: 19.1 ± 3.9 nM
Rr* ([1]; relative resistance, β-III overexpressing HeLa vs parental HeLa): 0.6
IC50 (Parental SK-OV-3): 36.3 ± 3.3 nM
IC50 [2]: 49.7 ± 7.9 nM

Compound: CSc1ccc(N(C)c2nc(C)nc3c2CC(C)C3)cc1 (stereo not shown) [Compound 2]
EC50 (A-10 cells; [7]): 116 nM
IC50 (Parental HeLa): 19.6 ± 2 nM
IC50 [1]: 14.8 ± 1.5 nM
IC50 (Parental SK-OV-3): 21.2 ± 4 nM
IC50 [2]: 22.7 ± 2.7 nM
IC50 (MDA-MB-435 cancer cells; Homo sapiens, MDA-MB-435, Table 4, Section II compounds, SRB assay, read-out: IC50 ± SD (MDA-MB-435) Cancer cells): 15 ± 6.5 nM

Continued, in another order:

EC50 (A-10 cells; [3]): 27.5 nM
IC50 (MDA-MB-435 cancer cells; [4]): 13.4 ± 0.5 nM
Compound: COc1ccc(N(C)c2ncnc3ccn(C)c23)cc1 [Table 3a 17]

IC50 (VEGFR2): 12.4 ± 1.2 nM
EC50 (A-10 cells; [5]): 1.48 nM
IC50 (EGFR): 6.3 ± 0.9 nM
IC50 (MDA-MB-435 cancer cells; [6]): 1.3 nM
IC50 (PDGFR-β): 4.2 ± 0.9 nM
Compound: COc1ccc(N(C)c2nc(Cl)nc3ccn(C)c23)cc1 [Table 3a 19]
IC50 (U251): 3.1 ± 0.4 nM
IC50 (A431): 2.1 ± 0.3 nM
GI50 (CAM): 9.3 ± 0.91 nM

EC50 (A-10 cells; [5]): 139 nM
IC50 (MDA-MB-435 cancer cells; [6]): 49.3 ± 1.1 nM
Compound: CN(c1ccc(OC(F)(F)F)cc1)c1nc(Cl)nc2ccn(C)c12 [Table 3a 29]

EC50 (A-10 cells; [3]): > 10000 nM
IC50 (MDA-MB-435 cancer cells; [4]): 2000 nM
Compound: COc1cccc2cc(N(C)c3nc(C)nc4ccn(C)c34)ccc12 [Table 3a 14]

EC50 (A-10 cells; [3]): 50 nM
IC50 (MDA-MB-435 cancer cells; [4]): 22.6 nM
Compound: COc1cccc2cc(N(C)c3nc(Cl)nc4ccn(C)c34)ccc12 [Table 3a 15]
